As a reminder, the IC50 is the concentration needed to halve the response being measured.

The text below walks through data of patent US8940740B2, “Small molecule inhibitors of bacterial motility and a high throughput screening assay for their identification” (priority 2010, dated 2015).

Assay [1] deals with Vibrio cholerae strain C7258. Nature of the assay: Bacterial motility in 384-well soft agar HTS assay, off-site OD615 reading. It is filed as cell-based. Conditions: for IC50: Vibrio cholerae, C7258, inhibition of bacterial motility, optical density read off-site from inoculation point, read-out: Motility OD IC50; for Control average OD615 in pilot screen: pilot screen control wells.

Assay [2] deals with Vibrio cholerae strain C7258. Nature of the assay: Bacterial viability/toxicity readout with alamarBlue in 384-well soft agar HTS assay. It is filed as cell-based. Conditions: for IC50: Vibrio cholerae, C7258, toxicity of compound to bacteria as measured by alamarBlue, read-out: Inhibition IC50. (In general: Resazurin is reduced to fluorescent resorufin, in cell work by metabolically active cells.)

Assay [3] has as its system Vibrio cholerae strain C7258. In words: Growth of strain C7258 in broth containing test compound. It is filed as cell-based. Particulars: strain C7258, LB medium; Q24DA 10 μg/mL (FIG. 2).
The subject of assay [4] is cholera toxin and toxin-co-regulated pilus production by strain C7258. It is filed as cell-based, Vibrio cholerae.
The test system of assay [5] is V. cholerae 0395, V. parahaemolyticus, V. vulnificus. In words: Swarm agar plates with different pathogenic Vibrios. It is filed as cell-based, Vibrio. Conditions: polar (SMF) vs lateral (PMF) flagellum. From the text: V. cholerae and V. vulnificus make a single polar flagellum (Fla) powered by sodium motive force (SMF). […] (A) V. cholerae 0395; (B) V. parahaemolyticus B22 (Fla^+ Laf^+); (C) V. parahaemolyticus LM5674 (Fla^+ Laf^+); (D) V. parahaemolyticus LM1017 (Fla^+ Laf^−); (E) V. parahaemolyticus LM5392 (Fla^− Laf^+); (F) V. parahaemolyticus 7890 (Fla^+ Laf^−); (G) V. vulnificus LAM624.

Assay [6] relates to Vibrio cholerae strain C7258. Nature of the assay: Growth with PMF blocked by CCCP (Na+ bioenergetics). It is filed as cell-based. Conditions: LB pH 8.6, 0.3 M NaCl, CCCP 5 μM, Q24DA 10 μg/mL.
Assay [7] deals with Vibrio cholerae strain C7258. Nature of the assay: Swarm agar plates stabbed with saturated cultures. It is filed as cell-based. Conditions: swarm agar stabbed with saturated culture of strain C7258.
Assay [8] has as its system polar flagellum / flagellin FlaA of V. cholerae strain C7258. In words: Flagellum assembly by transmission electron microscopy and FlaA western blot. It is filed as cell-based, Vibrio cholerae. In general terms: In western blotting, separated proteins are transferred to a membrane and probed.
The test system of assay [9] is V. cholerae biofilm formation. It is filed as cell-based, Vibrio cholerae.
The mark [10] stands for this setting: assay validation, phenamil at 100 μM.

≈ marks a conversion by molar mass, not a printed value. Some results are limits rather than exact numbers.

In the case of `c1ccc(CN2CCN(c3nc(NCc4ccco4)c4ccccc4n3)CC2)cc1` [compound 27307], the IC50 in assay [1] came to 34.9 µg/mL (≈ 87.3 µM); in assay [2], 37.9 µg/mL (≈ 94.8 µM).

On to `Cc1ccc(O)c(Nc2nc(NCCO)c3ccccc3n2)c1` [compound 27915], for which the figures for the IC50 in [1] and in assay [2] were 29.9 µg/mL (≈ 96.2 µM) and 23 µg/mL (≈ 74.2 µM), respectively.

On to `O=[N+]([O-])c1ccc(N2CCN(c3nc(N4CCN(CCO)CC4)nc4ccccc34)CC2)cc1` [compound 27310], for which the IC50 in [1] stood at 77.2 µg/mL (≈ 167 µM); in [2] it was 55.4 µg/mL (≈ 120 µM).

For the compound `OCCNc1nc(Nc2ccccc2F)nc2ccccc12` [compound 27912], the IC50 in [1] is 4.89 µg/mL (≈ 16.4 µM); in assay [2] it was 14.4 µg/mL (≈ 48.4 µM).

As to `Cc1cc(C)cc(Nc2nc(NCC3CCCO3)c3ccccc3n2)c1` (stereo not drawn) [compound 27929], the values for the IC50 in assay [1] and in assay [2] were 6.89 µg/mL (≈ 19.8 µM) and 6.11 µg/mL (≈ 17.5 µM), respectively.

For `Oc1ccccc1Nc1nc(NCc2ccco2)c2ccccc2n1` [compound 27297], the IC50 was 37.8 µg/mL (≈ 114 µM) in assay [1] and 81.9 µg/mL (≈ 246 µM) in assay [2].

In the case of `Fc1ccccc1Nc1nc(NCc2ccccc2)c2ccccc2n1` [compound 27299], the IC50 was determined as 6.37 µg/mL (≈ 18.5 µM) in assay [1] and 100 µg/mL (≈ 290 µM) in assay [2].

As to `COc1ccccc1Nc1nc(NCCO)c2ccccc2n1` [compound 27916], the IC50 in [1] was determined as 49.5 µg/mL (≈ 159 µM); in assay [2] it was 38.1 µg/mL (≈ 123 µM).

As to `FC(F)(F)c1cccc(Nc2nc(NCC3CCCO3)c3ccccc3n2)c1` (stereo not drawn) [compound 27930], the IC50 worked out at 7.59 µg/mL (≈ 19.5 µM) in assay [1] and 81.2 µg/mL (≈ 209 µM) in [2].

As to `COc1ccc(C)cc1Nc1nc(N)c2ccccc2n1` [compound 27284], the IC50 was 81.2 µg/mL (≈ 290 µM) in [1] and over 100 µg/mL in [2].

As to `OCCNc1nc(Nc2ccc3c(c2)OCO3)nc2ccccc12` [compound 27919], the figures for the IC50 in assay [1] and in [2] were 10.8 µg/mL (≈ 33.2 µM) and 29.8 µg/mL (≈ 91.8 µM), respectively.

Turning to `Cc1ccc(Nc2nc(NCCO)c3ccccc3n2)c(C)c1` [compound 27918], the IC50 in assay [1] stood at 6.1 µg/mL (≈ 19.8 µM); in assay [2] it was 15.6 µg/mL (≈ 50.4 µM).

As to `Cc1ccc(Nc2nc(NCc3ccco3)c3ccccc3n2)cc1` [compound 27296], the values for the IC50 in assay [1] and in [2] were 3.77 µg/mL (≈ 11.4 µM) and 11.1 µg/mL (≈ 33.5 µM), respectively.

As to `Oc1ccccc1Nc1nc(NCC2CCCO2)c2ccccc2n1` (stereo not drawn) [compound 27928], the IC50 in assay [1] was 16.5 µg/mL (≈ 49 µM); in assay [2], 19.4 µg/mL (≈ 57.6 µM).

Take `c1coc(CNc2nc(NCC3CCCO3)c3ccccc3n2)c1` (stereo not drawn) [compound 27926]: the IC50 in assay [1] was found to be 24.7 µg/mL (≈ 76.2 µM); in [2] it was 35.6 µg/mL (≈ 110 µM).

Take `OCCNc1nc(Nc2cccc(O)c2)nc2ccccc12` [compound 27910]: the IC50 in [1] worked out at 22.2 µg/mL (≈ 74.8 µM); in assay [2], 47 µg/mL (≈ 159 µM).

As to `Cc1ccc(C)c(Nc2nc(NCCO)c3ccccc3n2)c1` [AB00343282], the “Effect on growth rate in broth” value in assay [3] is given as “no effect on growth rate”. For the same compound, the IC50 in assay [1] came to 8.76 µg/mL (≈ 28.4 µM); in [2] it was 25.7 µg/mL (≈ 83.2 µM). Besides, the “V. cholerae virulence gene expression” value in [4] is recorded as “inhibits V. cholerae virulence gene expression”. For the same compound, the “Flagellum specificity among pathogenic Vibrios” value in [5] is given as “specific for the polar flagellum powered by SMF”. Also, in assay [6], the “Effect on growth inhibition by blocking the PMF” value was “enhances the inhibitory effect of blocking the PMF”. In addition, the “Motility in swarm agar (spread from inoculation site)” value in [7] (listed as Q24DA) was “motility inhibition”; in assay [7] (listed as quinazoline 2,4 diamine) it was “completely abolished motility”. The “Level of expression of major flagellin protein FlaA” value in assay [8] (Western blot analysis) was “nor did it affect”. For the same compound, the “Expression, secretion and assembly of wild type flagellum” value in assay [8] (transmission electron microscopy) is recorded as “does not inhibit”. In addition, the Biofilm formation entry in [9] is listed as “negative effect on biofilm formation”.

For the compound `OCCNc1nc(Nc2ccccc2O)nc2ccccc12` [compound 27911], the IC50 in [1] worked out at 29.5 µg/mL (≈ 99.7 µM); in assay [2] it was 34.2 µg/mL (≈ 116 µM).

As for `OCCNc1nc(NCCc2cccs2)nc2ccccc12` [compound 27917], the IC50 in [1] amounted to 19.7 µg/mL (≈ 62.7 µM); in assay [2], 27 µg/mL (≈ 85.9 µM).

Regarding `NC(=Nc1ccccc1)NC(=O)c1nc(Cl)c(N)nc1N` [phenamil, reference compound], the “Effect on motility (OD615 reading)” value in [1] (setting [10]) is on record as “inhibitory effect on motility”. Besides, the “Control average OD615 in pilot screen” value in [1] is “Ave-0.10 OD615, CV-3.2”. The “Effect on viability (alamarBlue reading)” value in assay [2] (setting [10]) is reported as “little effect on viability”.

Regarding `Cc1cc(C)cc(Nc2nc(NCCO)c3ccccc3n2)c1` [compound 27914], the results for the IC50 in assay [1] and in assay [2] were 6.96 µg/mL (≈ 22.6 µM) and 10.1 µg/mL (≈ 32.6 µM), respectively.

For the compound `OCCNc1nc(NCc2ccco2)nc2ccccc12` [compound 27908], the IC50 in assay [1] is 45.6 µg/mL (≈ 160 µM); in [2], over 100 µg/mL.

As to `COc1ccc(Nc2nc(N3CCCC3)nc3ccccc23)c(OC)c1` [compound 27301], the half-maximal inhibitory concentration (IC50) was determined as 46.6 µg/mL (≈ 133 µM) in assay [1] and 82 µg/mL (≈ 234 µM) in [2].

Take `CN(C)[C@@H]1C(O)=C(C(N)=O)C(=O)[C@@]2(O)C(O)=C3C(=O)c4c(O)cccc4[C@@](C)(O)[C@H]3C[C@@H]12` [tetracycline, reference compound]: the “Control average OD615 in pilot screen” value in assay [1] was “Ave-0.10 OD615, CV-3.6”.
